Legend:
[1] = target: T1, H3 receptor (Cavia porcellus, UniProt Q9JI35); assay: H3 Receptor Binding Assay (displacement of [3H]R-α-methylhistamine or [3H]-N-methylhistamine); settings: guinea pig brain membranes; 3 nM [3H]R-α-methylhistamine or [3H]-N-methylhistamine; 30°, 30 min; duplicate, standard error less than 10%
T1 construct: The source of the H3 receptors in this experiment was guinea pig brain; from tissue; host or cells: guinea pig brain membranes
Procedure: The compounds of this invention are either agonists or antagonists of the histamine H3 receptor. […] The animals used weighed 400-600 g. The tissue was homogenized using a Polytron in a solution of 50 mM Tris, pH 7.5. The final concentration of tissue in the homogenization buffer was 10% w/v. The homogenates were centrifuged at 1000×g for 10 min. in order to remove clumps of tissue and debris. […] The membranes were frozen and stored at -70° C. until needed. All compounds to be tested were dissolved in DMSO and then diluted into the binding buffer (50 mM Tris, pH 7.5) such that the final concentration was 2 μg/ml with 0.1% DMSO. Membranes were then added (400 μg of protein) to the reaction tubes. […] Bound ligand was separated from unbound ligand by filtration, and the amount of radioactive ligand bound to the membranes was quantitated by liquid scintillation spectrometry.

[2] = tested on: H3 receptors in rat brain; settings: cited from Arrang et al.; cited from earlier work

T1 sequence (Q9JI35 whole entry): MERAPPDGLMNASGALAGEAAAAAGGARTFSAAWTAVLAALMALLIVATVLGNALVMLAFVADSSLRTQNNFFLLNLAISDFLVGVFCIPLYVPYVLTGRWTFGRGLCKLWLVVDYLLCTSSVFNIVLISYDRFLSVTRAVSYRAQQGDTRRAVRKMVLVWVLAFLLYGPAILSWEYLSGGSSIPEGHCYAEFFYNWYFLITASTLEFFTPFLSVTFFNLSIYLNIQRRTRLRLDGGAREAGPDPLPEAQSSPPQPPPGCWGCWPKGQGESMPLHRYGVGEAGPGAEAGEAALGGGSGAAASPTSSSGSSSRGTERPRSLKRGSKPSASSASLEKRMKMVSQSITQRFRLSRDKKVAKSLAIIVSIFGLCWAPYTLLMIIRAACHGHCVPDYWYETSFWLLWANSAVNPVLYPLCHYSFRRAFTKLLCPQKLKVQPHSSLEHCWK

| Compound | Ki [1] | maximal inhibition of release [2] |
| --- | --- | --- |
| O=C(CCN1CCC(CCc2cnc[nH]2)C1)Nc1ccc(Cl)cc1 (centres unmarked) [Compound 45] | 0.9 nM |  |
| O=S(=O)(c1ccc(Cl)cc1)N1CCC(Cc2cnc[nH]2)CC1 [Compound 78] | 150 nM |  |
| c1ccc(OCCCN2CCC(Cc3cnc[nH]3)CC2)cc1 [Compound 79] | 4 nM |  |
| O=C(CCN1CCC(Cc2cnc[nH]2)CC1)Nc1cccc(Cl)c1 [Compound 81] | 0.2 nM |  |
| O=C(CCN1CCC(Cc2c[nH]cn2)CC1)NCCc1ccc(Cl)cc1 [Compound 82] | 0.7 nM |  |
| O=C(CCN1CCC(Cc2cnc[nH]2)CC1)Nc1cc(Cl)cc(Cl)c1 [Compound 83] | 0.7 nM |  |
| O=C(CCN1CCC(Cc2cnc[nH]2)CC1)Nc1ccc(Cl)cc1 [Compound 84] | 0.4 nM |  |
| O=C(Nc1cc(Cl)cc(Cl)c1)N1CCC(Cc2cnc[nH]2)CC1 [Compound 85] | 220 nM |  |
| O=C(CCOc1ccccc1)N1CCC(Cc2cnc[nH]2)CC1 [Compound 86] | 5 nM |  |
| O=C(CCOc1ccc(Cl)cc1)N1CCC(Cc2cnc[nH]2)CC1 [Compound 87] | 9 nM |  |
| Clc1ccc(OCCCN2CCC(Cc3cnc[nH]3)CC2)cc1 [Compound 88] | 9 nM |  |
| O=C(CCN1CCC(Cc2cnc[nH]2)CC1)Nc1ccc(I)cc1 [Compound 89] | 5 nM |  |
| O=C(CN1CCC(Cc2cnc[nH]2)CC1)Nc1ccc(Cl)cc1 [Compound 90] | 90 nM |  |
| O=C(Nc1cccc(Cl)c1)N1CCC(Cc2cnc[nH]2)CC1 [Compound 91] | 20 nM |  |
| O=C(Nc1ccc(Cl)cc1)N1CCC(Cc2cnc[nH]2)CC1 [Compound 92] | 160 nM |  |
| O=C(CCc1ccc(Cl)cc1)N1CCC(Cc2cnc[nH]2)CC1 [Compound 93] | 40 nM |  |
| O=C(CCN1CCC(Cc2c[nH]cn2)CC1)Nc1cccc(F)c1 [Compound 94] | 0.1 nM |  |
| O=C(CC(=O)N1CCC(Cc2cnc[nH]2)CC1)Nc1cccc(Cl)c1 [Compound 95] | 50 nM |  |
| O=C(CCCc1ccccc1)N1CCC(Cc2cnc[nH]2)CC1 [Compound 96] | 8 nM |  |
| O=S(=O)(c1ccc(OC(F)(F)F)cc1)N1CCC(CCc2cnc[nH]2)C1 (centres unmarked) [Compound 97] | 58 nM |  |
| FC(F)(F)c1ccc(NCCCN2CCC(CCc3cnc[nH]3)CC2)cc1 [Compound 114] | 60 nM |  |
| O=C(Cc1ccc(Cl)c(Cl)c1)N1CCC(CCc2cnc[nH]2)CC1 [Compound 115] | 57 nM |  |
| O=C(CCN1CCC(CCc2cnc[nH]2)CC1)Nc1ccc(Cl)cc1 [Compound 116] | 11 nM |  |
| O=C(CCN1CCC(CCc2cnc[nH]2)CC1)Nc1ccc(C(F)(F)F)cc1 [Compound 117] | 50 nM |  |
| O=C(Nc1cccc(Cl)c1)N1CCC(CCc2cnc[nH]2)CC1 [Compound 118] | 210 nM |  |
| NCCc1c[nH]cn1 [histamine] |  | approximately 60% |

From US6100279A, “Imidazoylalkyl substituted with a five, six or seven membered heterocyclic ring containing one nitrogen atom” (Schering Corporation, priority 1998, dated 2000)
